pIC50: −log10 of the molar value. Several values for one entry are separate records, joined by “and”; a condition that tells them apart may be missing. Equal values may be shown once.
Tested on: MCF7 complex spheroid growth, % test/control
Test: Anticancer human tumor MCF7 cell line growth inhibition [Asc];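 further: spheroids exposed to compounds for 7 days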;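 on viability, T/C: 100% = DMSO vehicle control wells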
Details: for viability, T/C: stronger effect = lower value
Procedure, shortened: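 Stromal components (HUVEC and hMSC) are co-assembled with the cancer cells into multicellular spheroids. Drugs are then added singly or paired, at concentrations falling by half-log increments from a clinically achievable maximum, capped at 10 microM without known Cmax.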

[1] = curve of first compound, second compound 0.0316 µM
[2] = curve of first compound, second compound 0.1 µM
[3] = curve of first compound, second compound 0.316 µM
[4] = curve of first compound, second compound 1 µM

NC(=O)C(=Cn1cnc(-c2cc(C(F)(F)F)cc(C(F)(F)F)c2)n1)c1cncnc1
viability, T/C (compound 0.000949 µM): 113% and 86% and 71.3% | viability, T/C (compound 0.003 µM): 95.1% and 90% and 67.6% | viability, T/C (compound 0.00949 µM): 81.6% and 81.3% and 64.6% | viability, T/C (compound 0.03 µM): 83.8% and 96.8% and 60.7% | viability, T/C (compound 0.0949 µM): 41.4% and 32.1% and 51.5% | viability, T/C (compound 0.3 µM): 16% and 17.7% and 24.4% | pIC50 (curve of compound): 7.08 and 7.18 and 7.02

CCN1C(C(=O)NC23CCC(C(=O)O)(CC2)CC3)C(c2cccc(Cl)c2F)C2(C(=O)Nc3cc(Cl)ccc32)C12CCCCC2 (stereo unspecified) + Cc1c(S(C)(=O)=O)c(-c2cc(F)cc(N3CCN(c4ccc(NS(=O)(=O)c5ccc(NC(CCN6CCC(C(=O)OCCCP(=O)(O)O)CC6)CSc6ccccc6)c(S(=O)(=O)C(F)(F)F)c5)cc4)CC3)c2)c(-c2ccc(Cl)cc2)n1C(C)C
pIC50 [1]: 6.87 | pIC50 [2]: 6.96 | pIC50 [3]: 7.05 | pIC50 [4]: 7.09 | pIC50 (curve of first compound, second compound 3.16 µM): 7.22 | pIC50 (curve of first compound, second compound 10 µM): 7.13 | viability, T/C (second compound 0.0316 µM, first compound 0.00949 µM): 96.9% | viability, T/C (second compound 0.0316 µM, first compound 0.03 µM): 97.5% | viability, T/C (second compound 0.0316 µM, first compound 0.0949 µM): 48.9% | viability, T/C (second compound 0.0316 µM, first compound 0.3 µM): 38.3% | viability, T/C (second compound 0.0316 µM, first compound 0.949 µM): 22.7% | viability, T/C (second compound 0.0316 µM, first compound 3 µM): 12.1% | viability, T/C (second compound 0.1 µM, first compound 0.00949 µM): 108% | viability, T/C (second compound 0.1 µM, first compound 0.03 µM): 93.7% | viability, T/C (second compound 0.1 µM, first compound 0.0949 µM): 46% | viability, T/C (second compound 0.1 µM, first compound 0.3 µM): 34.5% | viability, T/C (second compound 0.1 µM, first compound 0.949 µM): 15.2% | viability, T/C (second compound 0.1 µM, first compound 3 µM): 11.4% | viability, T/C (second compound 0.316 µM, first compound 0.00949 µM): 95.2% | viability, T/C (second compound 0.316 µM, first compound 0.03 µM): 79.6% | viability, T/C (second compound 0.316 µM, first compound 0.0949 µM): 45% | viability, T/C (second compound 0.316 µM, first compound 0.3 µM): 28.9% | viability, T/C (second compound 0.316 µM, first compound 0.949 µM): 15% | viability, T/C (second compound 0.316 µM, first compound 3 µM): 9.79% | viability, T/C (second compound 1 µM, first compound 0.00949 µM): 91.9% | viability, T/C (second compound 1 µM, first compound 0.03 µM): 74.4% | viability, T/C (second compound 1 µM, first compound 0.0949 µM): 42.5% | viability, T/C (second compound 1 µM, first compound 0.3 µM): 33.4% | viability, T/C (second compound 1 µM, first compound 0.949 µM): 11.6% | viability, T/C (second compound 1 µM, first compound 3 µM): 14.9% | viability, T/C (second compound 3.16 µM, first compound 0.00949 µM): 97.9% | viability, T/C (second compound 3.16 µM, first compound 0.03 µM): 63.8% | viability, T/C (second compound 3.16 µM, first compound 0.0949 µM): 44.2% | viability, T/C (second compound 3.16 µM, first compound 0.3 µM): 18.8% | viability, T/C (second compound 3.16 µM, first compound 0.949 µM): 12.1% | viability, T/C (second compound 3.16 µM, first compound 3 µM): 11.5% | viability, T/C (second compound 10 µM, first compound 0.00949 µM): 188% | viability, T/C (second compound 10 µM, first compound 0.03 µM): 153% | viability, T/C (second compound 10 µM, first compound 0.0949 µM): 30.6% | viability, T/C (second compound 10 µM, first compound 0.3 µM): 27.4% | viability, T/C (second compound 10 µM, first compound 0.949 µM): 12.2% | viability, T/C (second compound 10 µM, first compound 3 µM): 12.3%

O=C(c1ccc(F)c(F)c1Nc1ccc(I)cc1F)N1CC(O)([C@@H]2CCCCN2)C1 + CNC(C)C(=O)NC1CN(S(=O)(=O)c2cccc(S(=O)(=O)N3CCC4CCC(C(=O)NC(c5ccccc5)c5ccccc5)N4C(=O)C(NC(=O)C(C)NC)C3)c2)CCC2CCC(C(=O)NC(c3ccccc3)c3ccccc3)N2C1=O
pIC50 (curve of first compound, second compound 0.00316 µM): > 8.50 | pIC50 (curve of first compound, second compound 0.01 µM): > 8.50 | pIC50 [1]: > 8.50 | pIC50 [2]: > 8.50 | pIC50 [3]: > 8.50 | pIC50 [4]: > 8.50 | viability, T/C (second compound 0.00316 µM, first compound 0.00316 µM): 38.1% | viability, T/C (second compound 0.00316 µM, first compound 0.01 µM): 41.5% | viability, T/C (second compound 0.00316 µM, first compound 0.0316 µM): 34.6% | viability, T/C (second compound 0.00316 µM, first compound 0.1 µM): 26% | viability, T/C (second compound 0.00316 µM, first compound 0.316 µM): 19.4% | viability, T/C (second compound 0.00316 µM, first compound 1 µM): 12.3% | viability, T/C (second compound 0.01 µM, first compound 0.00316 µM): 17.3% | viability, T/C (second compound 0.01 µM, first compound 0.01 µM): 14.8% | viability, T/C (second compound 0.01 µM, first compound 0.0316 µM): 17.2% | viability, T/C (second compound 0.01 µM, first compound 0.1 µM): 12.9% | viability, T/C (second compound 0.01 µM, first compound 0.316 µM): 12.9% | viability, T/C (second compound 0.01 µM, first compound 1 µM): 11.6% | viability, T/C (second compound 0.0316 µM, first compound 0.00316 µM): 14.8% | viability, T/C (second compound 0.0316 µM, first compound 0.01 µM): 15.4% | viability, T/C (second compound 0.0316 µM, first compound 0.0316 µM): 13.3% | viability, T/C (second compound 0.0316 µM, first compound 0.1 µM): 16.4% | viability, T/C (second compound 0.0316 µM, first compound 0.316 µM): 10.7% | viability, T/C (second compound 0.0316 µM, first compound 1 µM): 10.2% | viability, T/C (second compound 0.1 µM, first compound 0.00316 µM): 13.2% | viability, T/C (second compound 0.1 µM, first compound 0.01 µM): 13.5% | viability, T/C (second compound 0.1 µM, first compound 0.0316 µM): 14.4% | viability, T/C (second compound 0.1 µM, first compound 0.1 µM): 12.3% | viability, T/C (second compound 0.1 µM, first compound 0.316 µM): 13.8% | viability, T/C (second compound 0.1 µM, first compound 1 µM): 9.72% | viability, T/C (second compound 0.316 µM, first compound 0.00316 µM): 13.3% | viability, T/C (second compound 0.316 µM, first compound 0.01 µM): 14.3% | viability, T/C (second compound 0.316 µM, first compound 0.0316 µM): 15.9% | viability, T/C (second compound 0.316 µM, first compound 0.1 µM): 12.5% | viability, T/C (second compound 0.316 µM, first compound 0.316 µM): 11.6% | viability, T/C (second compound 0.316 µM, first compound 1 µM): 12.4% | viability, T/C (second compound 1 µM, first compound 0.00316 µM): 14.6% | viability, T/C (second compound 1 µM, first compound 0.01 µM): 13.8% | viability, T/C (second compound 1 µM, first compound 0.0316 µM): 12.4% | viability, T/C (second compound 1 µM, first compound 0.1 µM): 12.9% | viability, T/C (second compound 1 µM, first compound 0.316 µM): 13% | viability, T/C (second compound 1 µM, first compound 1 µM): 13.2%

— PubChem BioAssay AID1963445 (Molecular Pharmacology Branch, DTP, NCI, 2024)
